Measurements as given in the supplement of paper PMC11061612.

Experiments:
Experiment in all cases: combination Emax (second highest fraction inhibited in the dose matrix, 72 h); higher = more inhibition; extreme values may be limits of the assay
CAL-78 (Chondrosarcoma) = test system: CAL-78 (Chondrosarcoma)
Summary of the method: (§1)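 Cell lines grown in DMEM/F12 or RPMI with 10% FBS were plated in 1536-well plates and held 24 hours at 37°C, 5% CO2 before 72 hours of exposure to two-drug dose matrices, with DMSO typically at 0.2%. CellTiter-Glo 2.0 luminescence gave viability, which was converted to inhibition. Vehicle wells were set to 0 and blank wells to 1. Combination Emax is the second-highest inhibition in the matrix, and Bliss excess is the observed combination effect minus the expected EA + EB − EA·EB, where EA and EB are the single-agent effects.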

[1] = test system: COR-L23 (Non-Small Cell Lung Carcinoma)
Summary of the method: as §1

[2] = test system: COR-L95 (Small Cell Lung Carcinoma)
Summary of the method: as §1

[3] = test system: CTV-1 (T-Lymphoblastic Leukemia)
Summary of the method: as §1

[4] = test system: DB (B-Cell Non-Hodgkin's Lymphoma)
Summary of the method: as §1

[5] = test system: DOV13 (Ovarian Carcinoma)
Summary of the method: as §1

DSH1 (Bladder Carcinoma) = test system: DSH1 (Bladder Carcinoma)
Summary of the method: as §1

[6] = test system: EM-2 (Chronic Myelogenous Leukemia)
Summary of the method: as §1

[7] = test system: HCC2157 (Breast Carcinoma)
Summary of the method: as §1

J82 (Bladder Carcinoma) = test system: J82 (Bladder Carcinoma)
Summary of the method: as §1

[8] = test system: KARPAS-1106P (B-Cell Non-Hodgkin's Lymphoma)
Summary of the method: as §1

[9] = test system: LS-513 (Colorectal Carcinoma)
Summary of the method: as §1

[10] = test system: MDA-MB-157 (Breast Carcinoma)
Summary of the method: as §1

[11] = test system: MFH-ino (Other Solid Carcinomas)
Summary of the method: as §1

NCI-H2595 (Mesothelioma) = test system: NCI-H2595 (Mesothelioma)
Summary of the method: as §1

[12] = test system: OCI-AML2 (Acute Myeloid Leukemia)
Summary of the method: as §1

SK-N-FI (Neuroblastoma) = test system: SK-N-FI (Neuroblastoma)
Summary of the method: as §1

[13] = test system: SW1990 (Pancreatic Carcinoma)
Summary of the method: as §1

[14] = test system: TE-5 (Esophageal Squamous Cell Carcinoma)
Summary of the method: as §1

[15] = test system: TGBC24TKB (Biliary Tract Carcinoma)
Summary of the method: as §1

Row | Compound | combination Emax (CAL-78 (Chondrosarcoma)) | combination Emax [1] | combination Emax [2] | combination Emax [3] | combination Emax [4] | combination Emax [5] | combination Emax (DSH1 (Bladder Carcinoma)) | combination Emax [6] | combination Emax [7] | combination Emax (J82 (Bladder Carcinoma)) | combination Emax [8] | combination Emax [9] | combination Emax [10] | combination Emax [11] | combination Emax (NCI-H2595 (Mesothelioma)) | combination Emax [12] | combination Emax (SK-N-FI (Neuroblastoma)) | combination Emax [13] | combination Emax [14] | combination Emax [15]
1 | Cc1c2c(nn1C)CSCc1cc(n(C)n1)CSc1cc(c3ccccc3c1)OCCCc1c(C(=O)O)n(C)c3c-2c(Cl)ccc13 [AZD5991] + Cn1cnc2c(F)c(Nc3ccc(Br)cc3Cl)c(C(=O)NOCCO)cc21 [Selumetinib] (first compound max 1 µM, 7x7, partner max 3 µM) | 0.717 | 0.31 | 0.306 | 0.187 | 1 | 0.252 | 0.489 | 0.609 | 0.982 | 0.197 | 0.979 | 0.796 | 0.641 | 0.358 | 0.283 | 1 | 0.565 | 0.41 | 0.287 | 0.418
2 | COc1cccc(OCCCN)c1-c1cc(Nc2cnc(C#N)cn2)n[nH]1 [Prexasertib] + CCc1c2c(nc3ccc(O)cc13)-c1cc3c(c(=O)n1C2)COC(=O)[C@]3(O)CC [SN-38] (first compound max 1 µM, 7x7, partner max 0.3 µM) | 0.906 | 0.852 | 0.844 | 0.999 | 0.983 | 0.959 | 0.924 | 0.982 | 1 | 0.894 | 0.897 | 0.751 | 0.989 | 0.704 | 0.426 | 1 | 0.886 | 0.741 | 0.818 | 0.852
3 | CC(=O)c1c(C)c2cnc(Nc3ccc(N4CCNCC4)cn3)nc2n(C2CCCC2)c1=O [Palbociclib] + Cc1c2c(nn1C)CSCc1cc(n(C)n1)CSc1cc(c3ccccc3c1)OCCCc1c(C(=O)O)n(C)c3c-2c(Cl)ccc13 [AZD5991] (first compound max 10 µM, 7x7, partner max 1 µM) | 0.693 | 0.203 | 0.196 | 0.843 | 1 | 0.752 | 0.523 | 0.484 | 1 | 0.25 | 0.897 | 0.658 | 0.669 | 0.382 | 0.225 | 0.955 | 0.557 | 0.204 | 0.157 | 0.585
4 | NC1(C(=O)N[C@@H](CCO)c2ccc(Cl)cc2)CCN(c2ncnc3[nH]ccc23)CC1 [Capivasertib] + CC(C)n1c(=O)n(C)c2cnc3cc(F)c(-c4ccc(OCCCN5CCCCC5)nc4)cc3c21 [AZD1390] (first compound max 10 µM, 7x7, partner max 0.3 µM) | 0.414 | 0.37 | 0.164 | 0.547 | 0.386 | 0.462 | 0.615 | 0.426 | 0.999 | 0.392 | 0.392 | 0.471 | 0.25 | 0.28 | 0.279 | 0.586 | 0.361 | 0.143 | 0.303 | 0.25
5 | CN(C)CCCOc1ccc(-c2ccc3ncc4c(c3c2)n(C2CCOCC2)c(=O)n4C)cn1 [AZD0156] + O=C(c1cc(Cc2n[nH]c(=O)c3ccccc23)ccc1F)N1CCN(C(=O)C2CC2)CC1 [Olaparib] (first compound max 3 µM, partner max 3 µM) | 0.272 | 0.39 | 0.373 | 0.303 | 0.476 | 0.608 | 0.387 | 0.306 | 0.38 | 0.128 | 0.551 | 0.267 | 0.27 | 0.256 | 0.139 | 0.67 | 0.148 | 0.16 | 0.302 | 0.457
6 | Cc1c2c(nn1C)CSCc1cc(n(C)n1)CSc1cc(c3ccccc3c1)OCCCc1c(C(=O)O)n(C)c3c-2c(Cl)ccc13 [AZD5991] + C[C@@H](Nc1cc(F)cc(F)c1)c1cc(C(=O)N(C)C)cc2c(=O)cc(N3CCOCC3)oc12 [AZD8186] (first compound max 1 µM, 7x7, partner max 3 µM) | 0.875 | 0.104 | 0.346 | 0.143 | 0.974 | 0.381 | 0.582 | 0.259 | 0.987 | 0.234 | 0.997 | 0.255 | 0.876 | 0.234 | 0.336 | 0.946 | 0.565 | 0.21 | 0.191 | 0.249
7 | COc1nnc2ccc(N3CCC(c4ccc(OCCN5CCN(C)C(=O)[C@H]5C)cc4)CC3)nn12 [AZD5153] + CC1(C)CCC(CN2CCN(c3ccc(C(=O)NS(=O)(=O)c4ccc(NCC5CCOCC5)c([N+](=O)[O-])c4)c(Oc4cnc5[nH]ccc5c4)c3)CC2)=C(c2ccc(Cl)cc2)C1 [Venetoclax] (first compound max 1 µM, 7x7, partner max 1 µM) | 0.457 | 0.317 | 0.802 | 0.963 | 0.991 | 0.477 | 0.623 | 0.918 | 1 | 0.308 | 0.761 | 0.568 | 0.498 | 0.415 | 0.375 | 1 | 0.629 | 0.108 | 0.412 | 0.642
8 | Cc1cc2ncnn2cc1Nc1ncc2c(n1)n(C1CCOCC1)c(=O)n2C [AZD7648] + C[C@@H]1COCCN1C2=NC(=NC(=C2)C3(CC3)[S@](=N)(=O)C)C4=C5C=CNC5=NC=C4 [AZD6738] (first compound max 10 µM, 7x7, partner max 10 µM) | 0.469 | 0.577 | 0.621 | 0.864 | 0.54 | 0.838 | 0.736 | 0.957 | 0.842 | 0.31 | 0.756 | 0.762 | 0.881 | 0.499 | 0.208 | 0.986 | 0.71 | 0.471 | 0.565 | 0.786
9 | CN(C)CCCOc1ccc(-c2ccc3ncc4c(c3c2)n(C2CCOCC2)c(=O)n4C)cn1 [AZD0156] + CCN(CCO)CCCOc1ccc2c(Nc3cc(CC(=O)Nc4cccc(F)c4)[nH]n3)ncnc2c1 [AZD2811] (first compound max 1 µM, 7x7, partner max 1 µM) | 0.193 | 0.116 | 0.208 | 0.234 | 0.559 | 0.493 | 0.211 | 0.852 | 0.824 | 0.283 | 0.244 | 0.508 | 0.153 | 0.136 | 0.108 | 0.773 | 0.114 | 0.0964 | 0.1 | 0.505
10 | COc1nnc2ccc(N3CCC(c4ccc(OCCN5CCN(C)C(=O)[C@H]5C)cc4)CC3)nn12 [AZD5153] + CCN(CCO)CCCOc1ccc2c(Nc3cc(CC(=O)Nc4cccc(F)c4)[nH]n3)ncnc2c1 [AZD2811] (first compound max 1 µM, 7x7, partner max 1 µM) | 0.486 | 0.354 | 0.308 | 0.974 | 0.722 | 0.676 | 0.651 | 0.986 | 1 | 0.355 | 0.741 | 0.602 | 0.54 | 0.553 | 0.465 | 1 | 0.657 | 0.118 | 0.434 | 0.765
11 | CC1(C)CCC(CN2CCN(c3ccc(C(=O)NS(=O)(=O)c4ccc(NCC5CCOCC5)c([N+](=O)[O-])c4)c(Oc4cnc5[nH]ccc5c4)c3)CC2)=C(c2ccc(Cl)cc2)C1 [Venetoclax] + C[C@@H]1COCCN1C2=NC(=NC(=C2)C3(CC3)[S@](=N)(=O)C)C4=C5C=CNC5=NC=C4 [AZD6738] (first compound max 1 µM, 7x7, partner max 10 µM) | 0.605 | 0.585 | 0.838 | 0.924 | 0.983 | 0.91 | 0.659 | 0.943 | 0.877 | 0.483 | 0.688 | 0.677 | 0.886 | 0.5 | 0.249 | 1 | 0.766 | 0.666 | 0.593 | 0.705
12 | Cn1cnc2c(F)c(Nc3ccc(Br)cc3Cl)c(C(=O)NOCCO)cc21 [Selumetinib] + CCN(CCO)CCCOc1ccc2c(Nc3cc(CC(=O)Nc4cccc(F)c4)[nH]n3)ncnc2c1 [AZD2811] (first compound max 10 µM, 7x7, partner max 1 µM) | 0.267 | 0.467 | 0.21 | 0.291 | 0.411 | 0.4 | 0.383 | 0.88 | 0.628 | 0.153 | 0.297 | 0.85 | 0.215 | 0.273 | 0.169 | 1 | 0.455 | 0.245 | 0.186 | 0.551
13 | COc1cccc(OCCCN)c1-c1cc(Nc2cnc(C#N)cn2)n[nH]1 [Prexasertib] + C[C@@H]1COCCN1C2=NC(=NC(=C2)C3(CC3)[S@](=N)(=O)C)C4=C5C=CNC5=NC=C4 [AZD6738] (first compound max 1 µM, 7x7, partner max 10 µM) | 0.604 | 0.685 | 0.675 | 0.948 | 0.748 | 0.945 | 0.852 | 0.994 | 0.971 | 0.522 | 0.905 | 0.8 | 0.949 | 0.572 | 0.141 | 1 | 0.915 | 0.695 | 0.548 | 0.918
